Test results taken from patent US20170050045A1, “PHOTODYNAMIC THERAPY USING IN SITU NONLINEAR PHOTON UPCONVERSION OF NIR LIGHT BY BIOLOGICAL MEDIUM” (The Research Foundation for The State University Of New York, priority 2014, published 2017).

What was measured:
HeLa cells [1] = assay: PDT phototoxicity in HeLa cells grown on collagen substrates, SHG excitation at 818 nm (detached and PI positive cells counted); assay type: cell-based
Procedure: To verify the efficiency of the different nonlinear-optical conversion mechanisms for PDT excitation, cell cultured samples were used in different lay-outs permitting separation of the relative contribution of one specific nonlinear process. All experiments were made in a Petri dish through the bottom optical glass window in an inverted microscopy configuration. When cells were grown directly on the optical glass window, the pump and Stokes waves were synchronized with a zero delay and the beams were focused into the cell culture treated with the photosensitizer, CARS/FWM signals were generated by the natural intercellular biomolecules of proteins or lipids. In this case, the CARS/FWM conversion was also supplemented by the TPA process directly in the photosensitizer and a combination of CARS/FWM/TPA was obtained (see diagram 1 in FIG. 3a). To separate the TPA contribution, a pulse delay of ˜5 ps between the pump and the Stokes waves was introduced which disabled the CARS/FWM process. Therefore, with the pulse delay t, TPA of photosensitizer produced the dominant PDT effect (see diagram 2 in FIG. 3a). We used another lay-out in which cells were grown on a thin layer of polymerized collagen gel (ordered collagen structures). When the pump and Stokes laser beams were focused in collagen and had zero delay, SHG/FWM/SFG (sum frequency generation) nonlinear interactions occurred in the collagen layer (see diagram 3 in FIG. 3a). To selectively look at the SHG contribution, a pulse delay was introduced which disabled the FWM and SFG processes. The second harmonic signal generated by the collagen structure propagated to reach the cells treated with the photosensitizer, and efficiently absorbed by it to excite PDT (see diagram 4 in FIG. 3a). The dose of laser radiation delivered to the sample was estimated to be ˜60 J/cm^2 at 812.6 or 818.8 nm; ˜30 J/cm^2 at 1064 nm per scan, for CARS/FWM in proteins/lipids cellular environmental medium; and ˜60 J/cm^2 for SHG in polymerized collagen gels.
Cell culture, drug treatment and PDT design. The process of PDT was modeled on the cultured HeLa cells. FIG. 3b diagrammatically illustrates the PDT procedure. HeLa cells were grown in Advanced DMEM (Life Technologies), supplemented with 2.5% fetal calf serum (FBS) (Sigma, St. Louis, Mo.), 1% glutamax (Life Technologies), 1% Antibiotic Antimycotic Solution (Sigma) at 37° C. in a humidified atmosphere containing 5% CO2. Prior to the incorporation of the photosensitizer and PDT experiments, cells were placed into glass-bottom dishes (MatTek, Ashland, Mass.). In the experiments involving SHG, the glass-bottom dishes were coated either with monomeric collagen (Sigma) or with collagen gels polymerized on the glass window. A stock solution of Chlorin-e6 was prepared in DMSO. The PDT process in the cultured cells was initiated by nonlinear optical excitation of the Chlorin-e6 photosensitizer, which was diluted to a final concentration of 90 μM in Advanced DMEM containing 15% FBS and 0.005% Tween 80. Cells were incubated with the drug for ninety minutes, thoroughly washed to remove unincorporated drug and subsequently used for optical exposure for PDT treatment.
During the laser irradiation, cells were maintained at 37° C. and 5% CO2 in a Live-Cell incubator (Pathology Devices, Westminster, Md.) mounted on the microscope stage. Following the laser irradiation, the cells were incubated for 4 hours in a fresh regular medium at 37° C. […]

HeLa cells [2] = assay: PDT phototoxicity in cultured HeLa cells, CARS/FWM/TPA vs TPA excitation (calcein AM / propidium iodide staining); assay type: cell-based; conditions: 90 μM, 90 min incubation, average of four series
Source text: Materials and Methods. Optical setup. The experimental setup used for the present nonlinear optical excitation of PDT utilized a custom made laser scanning microscopy system with two excitation NIR laser sources. A picosecond Nd:YVO4 laser (picoTRAIN IC-10000/532-4000, HighQ Laser) with pulse width ˜5 ps and a repetition rate of 76 MHz was used as the source for the Stokes wave ωs at the fundamental output of 1064 nm as well as for synchronous pumping of a tunable optical parametric oscillator (OPO, Levante Emerald, APE) by using its 532 second harmonic output with a pulse width of ˜4 ps. […] When the beating frequency ωp-ωs is tuned to be resonant with a vibrational mode of a selected molecular bond, the CARS signal together with its nonresonant electronic FWM background signal is detected at the anti-Stokes frequency of ωas=2ωp−ωs. Using our instrument setup, a sample can be excited and the imaged in the CARS/FWM mode in the vibrational frequency range of 900-3300 cm^−1 and simultaneously at 670-990 nm in the TPEF (two-photon excited fluorescence) or/and in the SHG mode. […] Thus, this experimental setup enables concurrent operation of the system in the PDT excitation mode as well as in the imaging mode (CARS/FWM/fluorescence) which is highly suitable for PDT process monitoring. […]

Question: With `C=Cc1c(C)c2cc3nc(c(CC(=O)O)c4[nH]c(cc5nc(cc1[nH]2)C(C)=C5CC)c(C)c4C(=O)O)[C@@H](CCC(=O)O)[C@@H]3C` [Chlorin e6] as the compound, how does the “difference in phototoxicity between polymerized and monomeric collagen groups” value (HeLa cells [1]; 50 scans, 818 nm, 3000 J/cm^2) read?
Answer: Its value is “tenfold”.

Question: What about the “detachment from the substrate, or positive PI staining of cells” value (HeLa cells [1]; cells on fibrillar (polymerized) collagen, 50 scans by 818 nm pulsed laser, 3000 J/cm^2, 90 μM) of the same compound?
Answer: Its value is “up to 50%”.

Question: And the “detached and PI positive cells” value (HeLa cells [1]; cells on fibrillar collagen substrates, 75 scans, 818 nm, ~4500/cm^2, 90 μM)?
Answer: The value was roughly 70%.

Question: What about the “cytotoxicity, by counting of the detached and PI positive cells” value (HeLa cells [1]; cells on monomeric collagen, 50 scans by 818 nm pulsed laser, 3000 J/cm^2, 90 μM) of the same compound?
Answer: Its value is “less than 5%”.

Question: What about the “cells either detached or displayed PI stain” value (HeLa cells [1]; cells on monomeric collagen, 75 scans, 818 nm, ~4500/cm^2, 90 μM) of the same compound?
Answer: Its value is roughly 35%.

Question: And the “necrotic cells (PI positive cells)” value (HeLa cells [2]; CARS/FWM/TPA mode (zero pulse delay), 818 nm pump + 1064 nm Stokes, 70 scans, ~6300 J/cm^2)?
Answer: Its value is 40%.

Question: And the “necrotic cells (PI positive cells)” value (HeLa cells [2]; TPA mode (delayed pulses), same number of scans (70))?
Answer: Its value is 20%.
